Tests used:
ABD-L253P = molecular target: T1, ABD-L253P (Homo sapiens, UniProt O15020, L253P); assay: Sedimentation of ABD L253P without actin (aggregation); settings: 1.6 μM
T1 construct: His-SUMO (cleaved yes); made in house; host or cells: E. coli BL21(DE3), pE-SUMOpro
Procedure: F-actin and ABD binding assays were performed as previously described. In brief, binding assays used 1 μM ABD protein, 1 μM F-actin and 1-50 μM compound (as indicated) or DMSO control for a total reaction volume of 60 μL in F-buffer containing 10 mM Tris, pH 7.5, 150 mM NaCl, 0.5 mM ATP, 2 mM MgCl2, and 1 mM DTT. Following 30 min incubation at room temperature (21° C.). F-actin was pelleted using centrifugation at 100,000×g at 25° C. for 30 min. Unbound ABD in the supernatant was measured following SDS-PAGE and Coomassie blue staining in accord. In addition, control co-sedimentations assays that lacked actin were performed to test if compounds cause ABD aggregation. F-actin and Lifeact-mCherry binding assays were undertaken with 2 μM Lifeact-mCherry, 30 μM F-actin and 1-50 μM compound (as indicated) or DMSO control for a total reaction volume of 80 μL in F-buffer. For a no-actin binding control, an assay sample with no F-actin was also set up. Binding reactions were allowed to reach equilibrium at room temperature (21° C.) for 30 min and then F-actin was pelleted by centrifugation at 100,000×g at 25° C. for 30 min. The amount of unbound Lifeact-mCherry was sampled by loading 7 μL of spin supernatant on a low volume black bottom 384-well plate (Greiner). Amount of mCherry was determined by acquiring fluorescence spectrum peak intensity at ˜600 nm using a spectral unmixing plate reader (Fluorescence Innovations, Inc) equipped with a 532 nm laser (Laserglow Technologies, Ontario, Canada) for excitation, 532 nm longpass filter for emission, and PMT for emission detection. The fraction of Lifeact-mCherry bound to F-actin was determined by subtracting from one the fraction of supernatant fluorescence intensity relative to the no-actin control sample, using the following equation: […]
In addition to a reduction in cell viability, the primary and counter screen may be sensitive to compounds that promote ABD-L253P protein aggregation. […] Our ABD-L253P to actin co-sedimentation assay is unlikely to be sensitive to ABD aggregation, as it is set up to monitor maximal sedimentation of ABD-L253P with actin at ˜90% ABD-L253P co-sedimenting. To directly measure the impact of 10 μM Hit compounds on ABD aggregation, we repeated the ABD-actin co-sedimentation without actin present.

[1] = molecular target: T2, GFP-ABD-L253P and mCherry (non-specific FRET) in HEK293-6E cells (Homo sapiens, UniProt O15020, L253P); assay: Counter FRET assay, non-specific FRET (GFP-ABD-L253P plus mCherry); assay type: cell-based; settings: swinholide A 3 μM
T2 construct: L252P β-III-spectrin (human) ABD residues 1-284; expressed in transfected cells; host or cells: HEK293-6E, pTT5 vector, transient
Procedure: At 2×10^6 cells/mL, HEK293-6E cells were transfected with GFP-ABD (2.4 μg), Lifeact-mCherry (2.4-16.8 μg), mCherry (1.2-16.8 μg), and/or pTT5 (0.8-17.6 μg) using the 293fectin protocol (Thermo Fisher Scientific) with 20 μg total DNA. The cells were harvested 24 hours later by centrifugation at 100×g for 5 min, and then washed twice with PBS. Cell viability and concentration were determined using trypan blue assay and a Countess cell counter (Invitrogen).
Using a Multidrop Combi liquid dispenser (Thermo Fisher Scientific), 10^6 cells/mL were dispersed into 1536-well and 384-well plates as 5 or 50 μL aliquots, respectively. For control and tool compound plates, 100 nL of DMSO or potential tool compound was loaded using the Mantis (Formulatrix). […] Two to three hours after sample loading, fluorescence lifetime measurements were performed using high-throughput fluorescence plate-readers provided by Photonic Pharma LLC (MN, USA), including one detecting fluorescence lifetime and another detecting fluorescence spectra, as described previously.
To develop a biosensor that monitors the binding of mutant L253P β-III-spectrin to actin filaments in live cells, a fluorescence resonance energy transfer (FRET) approach was tested. […] To measure the non-specific component to our FRET readout, we concurrently tested expression of mCherry in place of Lifeact-mCherry. […]

HEK293-6E cells = assay: Trypan blue cell viability assay; assay type: cell-based; settings: 3 μM, 3 hrs
Procedure: HEK293-6E cell viability was measured using trypan blue (0.03%) staining and a Countess Automated Cell counter (Invitrogen). Non-transfected HEK293-6E cells were spun at 100×g for 5 min at 21° C., and resuspended in 10 mL of PBS. The centrifugation and resuspension were repeated twice more. Final cell concentration was 1×10^6 cells/mL. Cells were incubated with 2% DMSO, or 3-50 μM compound (as indicated) for 3 hrs at room temperature (21° C.). After addition of 100 μL of 0.06% trypan blue solution in PBS, 10 μL was loaded on a slide and injected into the cell counter, and cell viability was measured.

T2 sequence (O15020 1-284 L253P): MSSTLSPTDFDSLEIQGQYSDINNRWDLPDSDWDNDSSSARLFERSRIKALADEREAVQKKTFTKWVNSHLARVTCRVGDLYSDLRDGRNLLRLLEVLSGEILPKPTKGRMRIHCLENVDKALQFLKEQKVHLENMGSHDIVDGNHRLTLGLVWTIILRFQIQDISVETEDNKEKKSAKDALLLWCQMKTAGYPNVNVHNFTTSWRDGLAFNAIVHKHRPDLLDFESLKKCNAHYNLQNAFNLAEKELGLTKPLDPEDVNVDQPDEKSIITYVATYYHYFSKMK
T1 sequence (O15020 1-284 L253P): as above

CO[C@H]1C[C@H](CC[C@H](C)[C@H](O)[C@H](C)[C@H]2OC(=O)/C=C/C(C)=C/C[C@H](O)C[C@@H]3C=CC[C@@H](C[C@H](OC)[C@@H](C)[C@@H](O)C[C@@H](O)[C@H](C)[C@@H]([C@@H](C)[C@@H](O)[C@@H](C)CC[C@H]4C[C@H](OC)C[C@H](C)O4)OC(=O)/C=C/C(C)=C/C[C@H](O)C[C@@H]4C=CC[C@@H](C[C@H](OC)[C@@H](C)[C@@H](O)C[C@@H](O)[C@@H]2C)O4)O3)O[C@@H](C)C1 [swinholide A] was tested, and the “ABD sedimentation without actin” value (ABD-L253P) was “does not alter ABD sedimentation”, the “effect on counter (non-specific) FRET” value [1] was “did not significantly alter” and the “effect on HEK293-6E cell viability” value (HEK293-6E cells) was “did not significantly alter and not”.
